In PubChem BioAssay AID248 (DTP/NCI, 2004):
Values joined by “and” are separate entries in the source; they are usually repeats but may differ in a detail not shown here. Equal entries are not always repeated. Inconclusive results and toxic doses are left out. Cut-off read from the data, not from the text of the source: active = T/C of 150% or more; inactive = T/C below 125%.

Tested on: L1210 leukemia ip in BDF1 mice, survival T/C
Test: NCI In Vivo Anticancer Drug Screen. Data for tumor model L1210 Leukemia (intraperitoneal) in B6D2F1 (BDF1) mice
Settings: endpoint: mean survival time, higher = longer survival
Outline: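 Antitumor effect is assessed in tumor-bearing animals. Survival in the compound arm is compared with a vehicle-dosed control arm and expressed as their quotient.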

[1] = dose: 100.0 mg/kg/injection, schedule: Q04DX003 (ip), vehicle: saline
[2] = dose: 200.0 mg/kg/injection, schedule: Q04DX003 (ip), vehicle: saline
[3] = dose: 400.0 mg/kg/injection, schedule: Q04DX003 (ip), vehicle: saline
[4] = dose: 100.0 mg/kg/injection, schedule: Q01DX001 (ip), vehicle: carboxymethylcellulose (CMC)
[5] = dose: 200.0 mg/kg/injection, schedule: Q01DX001 (ip), vehicle: carboxymethylcellulose (CMC)
[6] = dose: 400.0 mg/kg/injection, schedule: Q01DX001 (ip), vehicle: carboxymethylcellulose (CMC)
[7] = dose: 100.0 mg/kg/injection, schedule: Q01DX001 (ip), vehicle: Klucel (hydroxypropylcellulose) (HPC)
[8] = dose: 100.0 mg/kg/injection, schedule: Q04DX003 (ip), vehicle: Klucel (hydroxypropylcellulose) (HPC)
[9] = dose: 200.0 mg/kg/injection, schedule: Q01DX001 (ip), vehicle: Klucel (hydroxypropylcellulose) (HPC)
[10] = dose: 200.0 mg/kg/injection, schedule: Q04DX003 (ip), vehicle: Klucel (hydroxypropylcellulose) (HPC)
[11] = dose: 400.0 mg/kg/injection, schedule: Q01DX001 (ip), vehicle: Klucel (hydroxypropylcellulose) (HPC)
[12] = dose: 100.0 mg/kg/injection, schedule: Q01DX009 (ip), vehicle: Klucel (hydroxypropylcellulose) (HPC)
[13] = dose: 200.0 mg/kg/injection, schedule: Q01DX009 (ip), vehicle: Klucel (hydroxypropylcellulose) (HPC)
[14] = dose: 100.0 mg/kg/injection, schedule: Q01DX001 (ip), vehicle: saline
[15] = dose: 200.0 mg/kg/injection, schedule: Q01DX001 (ip), vehicle: saline
[16] = dose: 50.0 mg/kg/injection, schedule: Q01DX009 (ip), vehicle: Klucel (hydroxypropylcellulose) (HPC)
[17] = dose: 50.0 mg/kg/injection, schedule: Q01DX009 (ip), vehicle: saline
[18] = dose: 100.0 mg/kg/injection, schedule: Q01DX009 (ip), vehicle: saline
[19] = dose: 200.0 mg/kg/injection, schedule: Q01DX009 (ip), vehicle: saline

Measured: T/C

NC(=O)C1C2CC3OC(=O)C1C3C2 (stereo unspecified)
inactive: [1] 93 % of control and 103 % of control | [2] 102 % of control and 100 % of control | [3] 96 % of control and 88 % of control

COC(=O)CC1(O)C=CC(=O)C=C1
inactive: dose: 6.25 mg/kg/injection, schedule: Q01DX009 (ip), vehicle: Klucel (hydroxypropylcellulose) (HPC) 95 % of control | dose: 12.5 mg/kg/injection, schedule: Q01DX009 (ip), vehicle: Klucel (hydroxypropylcellulose) (HPC) 92 % of control | dose: 25.0 mg/kg/injection, schedule: Q01DX009 (ip), vehicle: Klucel (hydroxypropylcellulose) (HPC) 108 % of control | dose: 25.0 mg/kg/injection, schedule: Q01DX009 (ip), vehicle: saline 100 % of control

CCOC(=O)/C=C/P(=O)(OCC)OCC
inactive: [1] 108 % of control | [2] 94 % of control | [3] 96 % of control

S=P(NCCCCCCCCNP(=S)(N1CC1)N1CC1)(N1CC1)N1CC1
inactive: [4] 102 % of control | [5] 119 % of control | [6] 107 % of control

COc1ccc(NC(C)=O)cc1S(=O)(=O)F
inactive: [7] 93 % of control | [8] 102 % of control | [9] 88 % of control | [10] 104 % of control | [11] 93 % of control | dose: 400.0 mg/kg/injection, schedule: Q04DX003 (ip), vehicle: Klucel (hydroxypropylcellulose) (HPC) 96 % of control

NC(=S)N/N=C(/c1cccs1)C1CC1
inactive: dose: 4.0 mg/kg/injection, schedule: Q01DX Z (ip), vehicle: carboxymethylcellulose (CMC) 116 % of control | dose: 4.0 mg/kg/injection, schedule: Q01DX Z (oral), vehicle: carboxymethylcellulose (CMC) 97 % of control | dose: 8.0 mg/kg/injection, schedule: Q01DX Z (ip), vehicle: carboxymethylcellulose (CMC) 107 % of control | dose: 8.0 mg/kg/injection, schedule: Q01DX Z (oral), vehicle: carboxymethylcellulose (CMC) 115 % of control | dose: 16.0 mg/kg/injection, schedule: Q01DX Z (oral), vehicle: carboxymethylcellulose (CMC) 107 % of control

COc1ccc(C)cc1NC(=O)c1c(Br)c(Br)c(Br)c(Br)c1C(=O)O
inactive: [12] 98 % of control | [13] 92 % of control

Nc1nc(N)c(N=Nc2c(Br)cc(S(N)(=O)=O)cc2Br)c(=O)[nH]1
inactive: [14] 100 % of control | [15] 105 % of control | dose: 400.0 mg/kg/injection, schedule: Q01DX001 (ip), vehicle: saline 102 % of control

Nc1ccccc1CCc1ccccc1
inactive: dose: 100.0 mg/kg/injection, schedule: Q04DX002 (ip), vehicle: Klucel (hydroxypropylcellulose) (HPC) 103 % of control | dose: 200.0 mg/kg/injection, schedule: Q04DX002 (ip), vehicle: Klucel (hydroxypropylcellulose) (HPC) 100 % of control | dose: 400.0 mg/kg/injection, schedule: Q04DX002 (ip), vehicle: Klucel (hydroxypropylcellulose) (HPC) 100 % of control

CC(C)COP(=O)(Cc1ccccc1)OCC(C)C
inactive: [12] 110 % of control | [13] 101 % of control

CCCCCCCN(CCCCCCC)CC(O)c1cc2ccc(Cl)cc2c2cccnc12 (stereo unspecified)
inactive: [16] 98 % of control | [12] 96 % of control | [8] 102 % of control | [10] 104 % of control

Cc1nccnc1S(=O)c1ccc(Br)cc1 (stereo unspecified)
inactive: [7] 98 % of control | [9] 95 % of control | [11] 92 % of control

CCCCCCCCCCCCNC(=O)Nc1ccc(Cl)c(Cl)c1
inactive: [14] 92 % of control | [15] 93 % of control

CN(C)CC1CCCCCC(Br)C1=O (stereo unspecified)
inactive: dose: 75.0 mg/kg/injection, schedule: Q01DX001 (ip), vehicle: other 98 % of control | dose: 150.0 mg/kg/injection, schedule: Q01DX001 (ip), vehicle: other 95 % of control | dose: 300.0 mg/kg/injection, schedule: Q01DX001 (ip), vehicle: other 107 % of control

CSCSCC(CO)NCc1ccccc1 (stereo unspecified)
inactive: [17] 110 % of control | [14] 97 % of control | [18] 104 % of control | [15] 100 % of control

CC1(C)c2ccccc2C(C)(C(Cl)(Cl)Cl)c2ccc(Cl)cc21 (stereo unspecified)
inactive: dose: 50.0 mg/kg/injection, schedule: Q01DX001 (ip), vehicle: carboxymethylcellulose (CMC) 98 % of control | [4] 90 % of control | [18] 92 % of control | [5] 93 % of control | [19] 95 % of control | [6] 95 % of control | dose: 400.0 mg/kg/injection, schedule: Q01DX009 (ip), vehicle: saline 97 % of control

On1nnc2ccc(Cl)cc21
inactive: dose: 100.0 mg/kg/injection, schedule: Q04DX003 (ip), vehicle: saline with Tween-80 95 % of control | dose: 200.0 mg/kg/injection, schedule: Q04DX003 (ip), vehicle: saline with Tween-80 95 % of control | dose: 400.0 mg/kg/injection, schedule: Q04DX003 (ip), vehicle: saline with Tween-80 102 % of control

O=C(/C(=N/O)c1ccc(Cl)cc1)c1ccccc1
inactive: [16] 89 % of control | dose: 75.0 mg/kg/injection, schedule: Q01DX001 (ip), vehicle: Klucel (hydroxypropylcellulose) (HPC) 89 % of control | [12] 96 % of control | dose: 150.0 mg/kg/injection, schedule: Q01DX001 (ip), vehicle: Klucel (hydroxypropylcellulose) (HPC) 100 % of control | [13] 107 % of control | dose: 300.0 mg/kg/injection, schedule: Q01DX001 (ip), vehicle: Klucel (hydroxypropylcellulose) (HPC) 98 % of control

COC(=O)c1ccccc1NC(=O)Nc1cccc(F)c1
inactive: [12] 95 % of control | [13] 101 % of control | dose: 400.0 mg/kg/injection, schedule: Q01DX009 (ip), vehicle: Klucel (hydroxypropylcellulose) (HPC) 113 % of control

O=P(CCCl)(CCCl)CCCl
inactive: [17] 87 % of control | dose: 50.0 mg/kg/injection, schedule: Q04DX003 (ip), vehicle: saline 98 % of control | [18] 87 % of control | [1] 106 % of control | [19] 90 % of control | [2] 101 % of control | [3] 101 % of control
